This note sets out measurements from publication PMC9050848, “Carbamoyl-N-aryl-imine-urea: a new framework to obtain a putative leishmanicidal drug-candidate” (RSC Advances, 2020).

Data set [1] deals with J774.A1 cell lines (macrophages). Nature of the data set: Cytotoxicity against J774.A1 macrophages, MTT assay. The class given is cell-based, murine (BALB/c). The note with it: Mus musculus, J774.A1, 48 h, read-out: IC50 (concentration required to give 50% death of cells). How it is done: Initially the cytotoxic profile of compounds 9a–e and 10a–e against J774.A1 cell lines (i.e., BALB/c macrophage cell lines) was investigated. Therefore, these cells were exposed to different concentrations (0.1–100 μM) of compounds 9a–e and 10a–e and the cytotoxic effect was measured after 48 h of drug incubation, by using MTT-based assay. The cytotoxicity was expressed as IC50 values (that means the concentration of a drug that kills half of the tested cells in culture). As depicted in Table 1, most compounds have shown low cytotoxic activity with IC50 > 100 μM.
These adherent-phenotype macrophage lines were cultured in Dulbecco's Modified Eagle's medium (DMEM, Sigma) supplemented with 10% FBS at 37 °C with 95% humidity and 5% CO2.
To evaluate the cytotoxic activity against the J774.A1 cell line, the host cells were plated in 96-well cell culture plate (flat bottom, clear, Corning) at 2 × 10^5 cells per well in complete culture medium 10% FBS at 37 °C. After 1 h wells were washed with warm Hank's Balanced Salt solution (HBSS) to remove non-adherent cells, leaving approximately 10^5 adherent macrophages. All cultures were done in DMEM complete supplemented with 10% FBS. The compounds and pentamidine were added at serial concentrations (0.1–100 μM). The cells were also cultured with medium free from compounds or vehicle (basal growth control) or in media with DMSO 0.1% (vehicle control). Positive control (dead cells) was obtained by cellular lysis with 1% of Triton 100× in DMEM complete (because it is a detergent in this concentration, Triton 100× destabilizes the cell membrane of macrophages, causing cell death). The cytotoxicity was evaluated by the MTT assay.[31] This assay consists of indirectly measuring cell viability through the mitochondrial enzymatic activity of macrophages. Viable cells are capable of reducing MTT to formazan. For this, after the incubation of plate for 48 h, 100 μL of MTT solution (0.5 mg mL^−1, in DMEM medium) was added per well, and the plate was incubated for 1 h. Then, the supernatant of each well was retired and was added 150 μL of DMSO. The absorbance was determined at 570 nm in a microplate reader. The cell viability of the cultures treated with the compounds was compared to the death pattern obtained in the control cultures. In the positive control, the cell death was confirmed when the optical density was equal to zero, confirming that the cells were not viable. Data obtained from experiments were expressed as the mean ± standard error of the mean (mean ± S.E.M.) and statistical differences between the treated and the vehicle groups of experiments were evaluated by ANOVA and Dunnett hoc tests.

Data set [2] has as its system L. amazonensis intracellular amastigotes. In words: Leishmanicidal activity against intracellular amastigote forms of L. amazonensis in J774.A1 macrophages. The class given is cell-based. The settings on record: Leishmania amazonensis. Here is the method:
Considering that L. amazonensis is one of the causative species of cutaneous leishmaniasis in Brazil,[20] we have investigated the leishmanicidal effect of compounds 9a–e and 10a–e against L. amazonensis amastigotes forms. Initially, all compounds were evaluated at 30 μM. […] Then, they were selected to determine their IC50 value for intracellular amastigote forms of L. amazonensis.
(§1) Promastigotes of L. amazonensis (MHOM/BR/77/LTB0016) were obtained from Dr Eduardo Caio Torres dos Santos at Oswaldo Cruz Institute – Fiocruz. Promastigotes of L. braziliensis (MHOM/BR/01/BA788) were obtained from Dr Valéria de Matos Borges at Gonçalo Moniz Research Center – Fiocruz. The parasites were maintained in vitro in Schneider's medium, supplemented with 10% FBS and 2% human urine at 27 °C in BOD incubator.
(§2) Initially, compounds 9a–e and 10a–e were evaluated at screening concentration of 30 μM against L. amazonensis, using DMSO 0.03% as vehicle control, since this was the DMSO concentration (vehicle) remaining in each well with the tested compounds. […] Vehicle control used was DMSO 0.1%, since this was the concentration of DMSO (vehicle) existing in each well with the tested substances in the highest concentration used.
(§3) To assess the activity of the test derivatives against the amastigote stage of L. amazonensis and L. braziliensis the model of infection in coverglass was realized.[31] The murine macrophages (J774.A1 cell line) were prepared in 24-well cell culture plate (flat bottom, clear, Corning) at 2 × 10^5 adherent cells per well, infected with 2 × 10^6 promastigotes in glass coverslips placed inside 1 mL medium culture. The cultures were cultured or not with the test derivatives or reference drugs, and kept for 24 h at 37 °C, 5% CO2. After 24 h of incubation, the coverslips were washed, stained with Giemsa–May–Grünwald, and intracellular amastigotes were counted in 100 macrophages, using an optical microscope, on the objective of 100×. Thus, during the counting of 100 macrophages, the amount of amastigotes present within these defence cells was also determined. Data obtained from in vitro experiments were expressed as the mean ± S.E.M. of duplicate cultures of representative assays. Statistical differences between the treated and the control groups were evaluated by ANOVA and Dunnett hoc tests. Differences with a p value < 0.05 or lower were considered significant.

Data set [3] relates to L. braziliensis intracellular amastigotes. Nature of the data set: Leishmanicidal activity against intracellular amastigote forms of L. braziliensis in J774.A1 macrophages. The class given is cell-based. The settings on record: Leishmania braziliensis.
Text: Further, the leishmanicidal activity against intracellular amastigotes forms of L. braziliensis were also investigated (Table 2).
as §1, §2, §3

For another data set, the system named is L. amazonensis. In words: Murine model of cutaneous leishmaniasis induced by L. amazonensis (efficacy). The format is in vivo, BALB/c mice. The settings on record: 30 μmol per kg per day × 28 days. Here is the method:
So, BALB/c mice infected with L. amazonensis were treated during 28 days with compound 10e (30 μmol per kg per day, i.p.) or with the standards miltefosine (30 μmol per kg per day, p.o.) and meglumine antimoniate (30 μmol per kg per day, i.p.).
(§4) This study (protocol number 2013.02) was approved by the Ethics Committee for Animal Experimentation of the Federal University of Alagoas (Brazil). All animals received humane care in compliance with the ‘Principles of laboratory animal care’ formulated by the National Society for Medical Research and the ‘Guide for the care and use of laboratory animals’ prepared by the National Academy of Sciences (Washington, DC). Then, 1 × 10^5 stationary promastigotes (5 days of culture in Schneider's medium) of L. amazonensis were inoculated subcutaneously into the right ear dermis of 6 week-old female BALB/c mice weighing ca. 20 g. and later treated with 10e (i.p.), miltefosine (p.o.) or meglumine antimoniate (i.p.) at 30 μmol kg^−1 × 28 days. The vehicle to solubilize 10e (LASSBio-1736) and standard drugs was Tween 20 (50 μL) and sterile water for injection, which was also administrated by i.p. route in two controls groups (non-infected control and infected control). The lesion size was measured using a paquimeter.[32] The parasite loads of infected ears and draining lymph nodes were determined using a quantitative limiting-dilution assay.[33] Toxicity was also evaluated due to alterations on spleen weight and by biochemistry dosages in plasma, performed according to the manufacturer's instructions (Doles, BRA). Data obtained from experiments were expressed as the mean ± S.E.M. and statistical differences between the treated and the vehicle groups of experiments were evaluated by ANOVA and Dunnett hoc tests.

Data set [4] can be described thus: Toxicity in treated infected mice (survival, spleen weight, serum biochemistry). The class given is in vivo. The note with it: infected BALB/c mice, 30 μmol kg−1 daily for 28 days, n = 5. How it is done:
The survival of BALB/c mice infected with L. amazonensis untreated and treated during 28 days with the daily dose of 30 μmol kg^−1 with meglumine antimoniate, miltefosine and 10e (LASSBio-1736) was analyzed. Animal mortality was not observed for the groups treated with 10e and miltefosine, while 20% of death was identified from the 25th day of treatment with meglumine antimoniate (Fig. 11). After the end of treatment, the animal's toxicity was investigated looking for any alterations on spleen weight and on alanine aminotransferase (ALT), aspartate aminotransferase (AST), creatinine (CREA) and urea serum levels.
as §4

Data set [5] can be described thus: Plasma stability (UPLC-MS/MS recovery). The format is in vitro ADME. The note with it: 37 °C, rat plasma diluted 1:1 with PBS pH 7.4, read-out: Compound recovery after incubation with rat plasma. How it is done: To investigate the potential plasma instability of the carbamoyl-N-arylimine-urea subunit, designed as a new peptide mimetic framework, compound 10e (LASSBio-1736) was selected to investigate its plasma stability,[21,22] previously to the evaluation of its in vivo leishmanicidal effect. Quantitation of 10e (LASSBio-1736), benzocaine standard (positive control; it means a substrate drug for plasma hydrolysis) and ketoconazole (internal standard) was determined by UPLC-MS/MS, after incubation of the compounds at 0, 30, 60, 120 and 240 min with rat plasma, and measuring the peak areas in three different experiments.
For analysis of plasma stability, 5 μL (250 ng mL^−1) of a concentrated solution of 10e (LASSBio-1736) or the positive control benzocaine (stock concentration = 10 000 ng mL^−1 solubilized in DMSO) was added in 195 μL of rat plasma solution (1 : 1) diluted with PBS (pH 7.4). […] The supernatant (400 μL) were placed in 2 mL vials, and analyzed by UPLC-MS/MS. […]
Detection in single reaction monitoring (SRM) mode was used for determination of the LASSBio-1736 (10e) m/z 419.1 → 205.0, benzocaine m/z 166.1 → 137.9 and ketoconazole (IS) 532.1 → 490.3, with a tolerance of mass deviation of 6 ppm, operating in positive ionization mode. The data were acquired using TraceFinder 3.2. software (Thermo Fisher Scientific, Waltham, USA), and analyzed using GraphPad Prism 5 program.

Setting [6] is: J774.A1, 24 h, read-out: IC50 (concentration required to give 50% death of parasites).

As to `CCCCCCCCCCCCCCCCOP(=O)([O-])OCC[N+](C)(C)C` [Miltefosine, reference compound], the IC50 is greater than 100 µM in data set [1], 22 ± 1.8 µM in data set [2] (setting [6]) and 32.1 ± 1.1 µM in data set [3] (setting [6]). The Emax was determined as 58.1 ± 4.9% in data set [2] (J774.A1, L. amazonensis intracellular amastigotes, maximum toxicity vs 0.1% DMSO group, read-out: Maximum effect (% ± S.E.M.)) and 84 ± 1.5% in data set [3] (J774.A1, L. braziliensis intracellular amastigotes, maximum toxicity vs 0.1% DMSO group, read-out: Maximum effect (% ± S.E.M.)). The “Appearance of lesions on the first day after end of treatment (photographs)” value with L. amazonensis was “complete healing of the nodules and ulcers”. The “Lesion sizes of infected ear” value in the data set on L. amazonensis (10e and meglumine antimoniate i.p., miltefosine p.o.) is recorded as “reduced the lesion sizes of infected ear”. The “Parasite load in infected ear” value with L. amazonensis (limiting-dilution assay) was “decreased parasite load in infected ear”. In addition, the Animal mortality entry in data set [4] is “not observed”.

With `CCOC(=O)c1ccc(N)cc1` [benzocaine, reference compound], in data set [5], the recovery at 4 h, 250 ng/mL turned out to be 38%.

Turning to “meglumine antimoniate [reference compound]”, the “Appearance of lesions on the first day after end of treatment (photographs)” value with L. amazonensis was “the lesions showed an intense swelling and ulcerated”. This compound also came in with an Animal mortality in data set [4] of 20%.
